Legend:
[1] = Neurotoxicity assay: MTS viability of primary cortical neuronal cultures; format: cell-based, mouse; conditions: BL6Jx129sv, mouse, primary cortical neuronal cultures, Neuronal cells, read-out: Cytotoxicity (% viable at 1 and 10 uM); for viability at 4 days, 1 uM: test compound 1 uM; for viability at 4 days, 10 uM: test compound 10 uM
Experimental: Media was then replaced with Neurobasal media (Invitrogen Life Technologies) and B27 supplements (Invitrogen Life Technologies). Cultures were maintained at 37° C. in 5% CO2. Prior to experimentation, the culture medium was replaced with Neurobasal media and B27 minus antioxidants (Invitrogen Life Technologies).
Cell viability is determined using the MTS assay. Culture medium is replaced with fresh neurobasal medium plus B27 supplements minus antioxidants. 1/10th volume MTS solution (Cell Titre 96 Aqueous One, Promega Corporation) and incubated at 37° C., 2 hrs. 200 microlitre aliquots are measured with a spectrophotometer at 560 nm.
Neuronal cortical cells were cultured for five days as per Assay 2 in NB media and B27 supplement.
On day six the test compounds were added to the neuronal cell cultures in NB media and B27 supplement minus antioxidants.
Test compounds were dissolved in 100% DMSO to a concentration of 2.5 mM (10 mM if excess compound was weighed out per vial—then diluted to 2.5 mM). […] Test compounds were not added directly to cells, instead they were added to a 48 well ‘Drug Plate’ as comprised below:
The Drug Plate was incubated at 37° C. for 15 mins. 200 μl of each well was added in triplicate to the corresponding cell plate. The cell plate was incubated at 37 C, for 4 days.
On completion of the assay, 1/10 volume MTS was added per well of plate (i.e. 25 μl/250 μl). The plates were incubated at 37 C for 2 hrs, and then absorbance was read at 560 nm.

[2] = Mice plasma concentration; format: in vivo; conditions: for Mice plasma concentration: presence in plasma at one or two time points (between 30 min and 4 h); for Mice plasma concentration (single dose) / Mice plasma concentration at 10 mg/kg: one or two time points (between 30 min and 4 h)
[3] = In vivo toxicity, visual observations; conditions: number of days
[4] = Cytotoxicity: viability of M17 cells; conditions: human, M17 neuroblastoma cells, Cytotoxicity (% viable at 1 and 10 uM); for viability at 1 uM: test compound 1 uM; for viability at 10 uM: test compound 10 uM

| Mice plasma concentration [2] | Mice plasma concentration (single dose) [2] | Mice plasma concentration at 10 mg/kg [2] | SMILES | viability at 4 days, 1 uM [1] [%] | viability at 4 days, 10 uM [1] [%] | Toxicity at 30 mg/kg [3] | viability at 1 uM [4] [%] | viability at 10 uM [4] [%] | Toxicity at 10 mg/kg [3] |
| --- | --- | --- | --- | --- | --- | --- | --- | --- | --- |
| Up to 2694 ng/mL |  |  | O=C(NCCc1c[nH]cn1)c1ccc2c(Cl)cc(Cl)c(O)c2n1 | 91 | 84 |  |  |  |  |
| Up to 1000 ng/mL |  |  | CN(C)Cc1cnc2c(Cl)cc(Cl)c(O)c2n1.Cl | 106 | 93 |  |  |  |  |
|  | Below 100 ng/mL (single dose) |  | O=c1[nH]cnc2c(O)c(Cl)cc(Cl)c12 | 100 | 93 | 3 days, none |  |  |  |
|  | Up to 350 ng/mL (single dose) |  | Oc1c(C2CC2)ncc2cccnc12 | 100 | 98 | 6 days, none |  |  |  |
|  | Up to 262 ng/mL in mice (single dose) |  | CN1CCCC1CCn1cnc2c(O)c(Cl)cc(Cl)c2c1=O (stereo not drawn) | 105 | 94 | 10 days, none |  |  |  |
|  | Up to 10 ng/mL (single dose) |  | O=c1c2c(Cl)cc(Cl)c(O)c2ncn1CCN1CCOCC1 | 98 | 81 | 10 days, none |  |  |  |
| Up to 207 ng/mL |  |  | CN1CCN(n2cnc3c(O)c(Cl)cc(Cl)c3c2=O)CC1 | 96 | 91 | 10 days, none |  |  |  |
|  |  |  | Cc1cnc(-n2cnc3c(O)c(Cl)cc(Cl)c3c2=O)s1 | 94 | 70 | 10 days, mild signs |  |  |  |
|  |  |  | O=c1c2c(Cl)cc(Cl)c(O)c2ncn1N1CCCCC1 | 98 | 51 | 10 days, none | 87.9 | 72.7 |  |
|  |  |  | O=c1c2c(Cl)cc(Cl)c(O)c2ncn1-c1ccc(Cl)cn1 | 94 | 58 | 10 days, none | 86.9 | 70.5 |  |
| Up to 3896 ng/mL |  |  | CCn1nccc1-n1cnc2c(O)c(Cl)cc(Cl)c2c1=O | 102 | 94 | 10 days, none |  |  |  |
| Up to 39 ng/mL |  |  | Cc1ccc(-n2cnc3c(O)c(Cl)cc(Cl)c3c2=O)nc1 | 96 | 83 | 10 days, none |  |  |  |
|  |  |  | O=c1c2c(Cl)cc(Cl)c(O)c2ncn1N1CCCC1 | 101 | 88 | 10 days, none |  |  |  |
| Up to 59 ng/mL |  |  | O=c1c2c(Cl)cc(Cl)c(O)c2ncn1CCc1ccccn1 | 100 | 92 | 10 days, none |  |  |  |
|  | Up to 80 ng/mL (single dose) |  | COc1ccc(-n2cnc3c(O)c(Cl)cc(Cl)c3c2=O)nc1 | 122 | 93 | 10 days, none |  |  |  |
| Up to 439 ng/mL |  |  | Br.Cc1cccnc1Cn1cnc2c(O)c(Cl)cc(Cl)c2c1=O | 99 | 88 | 10 days, 3/4 mild signs |  |  |  |
|  |  |  | Br.O=c1c2c(Cl)cc(Cl)c(O)c2ncn1Cc1cccc(Cn2cnc3c(Cl)c(Cl)cc(Cl)c3c2=O)n1 | 89 | 67 | 10 days, none | 94.9 | 26.8 |  |
|  |  |  | CCCCn1cnc2c(O)c(Cl)cc(Cl)c2c1=O | 104 | 85 |  | 105 | 95.4 |  |
|  |  |  | CCn1cnc2c(O)c(Cl)cc(Cl)c2c1=O | 93 | 58 |  | 104 | 95.9 |  |

| Mice plasma concentration [2] | Mice plasma concentration (single dose) [2] | Mice plasma concentration at 10 mg/kg [2] | SMILES | viability at 4 days, 1 uM [1] [%] | viability at 4 days, 10 uM [1] [%] | Toxicity at 30 mg/kg [3] | viability at 1 uM [4] [%] | viability at 10 uM [4] [%] | Toxicity at 10 mg/kg [3] |
| --- | --- | --- | --- | --- | --- | --- | --- | --- | --- |
|  | Up to 1096 ng/mL (single dose) |  | CCCn1cnc2c(O)c(I)ccc2c1=O |  |  | 10 days, none |  |  |  |
| Up to 1538 ng/mL |  |  | O=c1c2ccc(I)c(O)c2ncn1Cc1ccccn1 |  |  | 10 days, none | 93.8 | 84.5 |  |
|  |  |  | CCn1cnc2c(O)c(I)ccc2c1=O |  |  | 10 days, none |  |  |  |
|  |  | At 10 mg/kg: Up to 7082 ng/mL | CCc1cnc2c(O)c(I)ccn2c1=O |  |  |  | 82.5 | 23.3 | At 10 mg/kg 10 days, none |
| Up to 2289 ng/mL |  |  | Br.CCN(CC)Cc1nc2c(O)c(Cl)cc(Cl)c2c(=O)[nH]1 |  |  | 10 days, none | 106 | 99.1 |  |
|  | Up to 125.5 ng/mL (Single dose) |  | CCNC(=O)c1cnc2c(O)c(CC)ncc2c1.Cl |  |  |  | 84.4 | 92.1 |  |
| Up to 4060 ng/mL |  |  | CCCn1cnc2c(O)c(I)cc(Cl)c2c1=O |  |  |  | 120 | 100 |  |
|  |  |  | O=c1c2c(Cl)cc(I)c(O)c2ncn1CC1CC1 |  |  |  | 97.9 | 82.3 | At 10 mg/kg: 10 days, none |
|  |  |  | CC(C)c1cnc2c(O)c(I)ccn2c1=O |  |  | 10 days, 1/4 death, remaining 1/3 mild sings | 96.7 | 44.2 |  |
|  |  |  | CCCCc1cnc2c(O)cccn2c1=O |  |  | 10 days, none | 73.6 | 37 |  |
|  |  |  | CCCCc1cnc2c(O)c(I)ccn2c1=O |  |  | 10 days, 2/4 deaths | 102 | 58.7 |  |
|  |  | At 10 mg/kg: Up to 309 ng/ml ng/mL | CC(C)Cn1cnc2c(O)c(I)ccc2c1=O |  |  |  | 111 | 68.2 | At 10 mg/kg: 10 days, none |
|  |  |  | O=c1c2ccc(I)c(O)c2ncn1-c1ccc(F)cc1F |  |  | 6 days, 2/4 deaths | 90.3 | 80.3 |  |
|  |  |  | O=C(NCc1ccc(F)cc1)c1cnc2c(O)c(I)ccn2c1=O |  |  | 7 days, 4/4 deaths | 89.6 | 23.4 |  |
|  |  |  | CN(C)Cc1ccc2c(Cl)cc(I)c(O)c2n1 |  |  | 1 day, 3/4 deaths | 97.9 | 24.4 |  |
|  |  |  | O=C1NC(=O)c2cc(-n3cnc4c(O)c(Cl)cc(Cl)c4c3=O)ccc21 |  |  | 10 days, none | 85.4 | 93.3 |  |
|  |  |  | O=C(O)Cn1cnc2c(O)c(Cl)cc(Cl)c2c1=O |  |  | 10 days, none | 105 | 101 |  |
|  |  |  | Nc1cc(Cn2cnc3c(O)c(Cl)cc(Cl)c3c2=O)ccn1 |  |  | 10 days, 1 of 4 deaths | 95.1 | 93.9 |  |

| SMILES | Mice plasma concentration [2] | Mice plasma concentration (single dose) [2] | Mice plasma concentration at 10 mg/kg [2] | viability at 4 days, 1 uM [1] [%] | viability at 4 days, 10 uM [1] [%] | Toxicity at 30 mg/kg [3] | viability at 1 uM [4] [%] | viability at 10 uM [4] [%] | Toxicity at 10 mg/kg [3] |
| --- | --- | --- | --- | --- | --- | --- | --- | --- | --- |
| O=c1c(-c2ccc(Cl)cc2)cnc2c(O)c(I)ccn12 | Up to 450 ng/mL |  |  | 41 | 33 | 10 days, mild toxic signs |  |  |  |
| CCCCc1cnc2c(O)cccn2c1=S | Up to 57 ng/ml ng/mL |  |  |  |  | 7 days, 2/4 deaths |  |  |  |
| CC(C)n1cnc2c(O)c(I)ccc2c1=O | Up to 277 ng/ml ng/mL |  |  |  |  | 10 days, 1/4 deaths |  |  |  |
